Experimental data as given in PMC4543428 (European journal of pharmacology, 2015).
Where a name gives a salt, the structure may show the parent alone. Read-outs that look alike come from different tables or passages of the source.

Key:
sigma2 receptor [1] = molecular target: T1, sigma2 receptor (Mus musculus, UniProt Q8VD00); experiment: Sigma2 receptor competition binding against [3H]DTG /; settings: for Sigma2 nH (pseudo-Hill slope): 3.0 nM [3H]DTG / 500 nM (+)-pentazocine, 60 min, 25 °C; for Selectivity Ki Ratio σ2/σ1: sigma2 Ki / sigma1 Ki
T1 sequence (Q8VD00 1-176): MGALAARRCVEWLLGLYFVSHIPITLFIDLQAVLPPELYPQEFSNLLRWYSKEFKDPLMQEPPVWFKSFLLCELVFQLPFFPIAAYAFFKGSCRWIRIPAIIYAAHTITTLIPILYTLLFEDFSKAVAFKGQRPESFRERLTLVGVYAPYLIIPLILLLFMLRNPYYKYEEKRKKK

sigma1 receptor [2] = molecular target: T2, sigma1 receptor (Mus musculus, UniProt O55242); experiment: biochemical
sigma1 receptor [3] = molecular target: T2, sigma1 receptor; settings: for Sigma1 nH (pseudo-Hill slope): 1.0 nM [3H](+)-pentazocine, 6 h, 37 °C
sigma1 receptor [4] = molecular target: T2, sigma1 receptor; type: in vivo; settings: for ED50: mouse, ip
sigma2 receptor [5] = experiment: [3H]DTG association kinetics and homologous; type: binding, mouse; settings: 25 °C; 3.0 nM; 500 nM (+)-pentazocine

T2 sequence (O55242 whole entry): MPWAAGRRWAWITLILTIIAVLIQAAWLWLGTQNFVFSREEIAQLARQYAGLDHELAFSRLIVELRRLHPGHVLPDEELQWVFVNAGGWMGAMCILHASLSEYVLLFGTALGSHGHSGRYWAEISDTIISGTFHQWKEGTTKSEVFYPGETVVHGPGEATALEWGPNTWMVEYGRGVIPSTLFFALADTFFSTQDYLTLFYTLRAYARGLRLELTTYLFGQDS

Compound | Sigma2 nH (pseudo-Hill slope) (sigma2 receptor [1]; mouse lung membranes) | Ki (sigma1 receptor [2]) [nM] | Selectivity Ki Ratio σ2/σ1 (sigma2 receptor [1]; mouse lung membranes) | Sigma1 nH (pseudo-Hill slope) (sigma1 receptor [3]; mouse lung membranes) | also measured
(−)-cocaine hydrochloride | 0.93 ± 0.09 | – | – | – | –
COc1ccc2c(c1)[C@]13CCCC[C@@H]1[C@H](C2)N(C)CC3 [Dextromethorphan, dextromethorphan hydrobromide] | 1.22 ± 0.12 | 71.7 ± 6.56 | 58 | 0.86 ± 0.12 | IC50 (sigma2 receptor [1]): 4510 ± 714 nM; Ki (sigma2 receptor [1]): 4200 ± 664 nM; Hill slope in the presence of phenytoin (sigma1 receptor [3]; phenytoin 1.0 mM in NaOH vehicle, mouse lung membranes): 1.2 ± 0.2; shift to higher apparent sigma1 affinity caused by phenytoin (sigma1 receptor [3]; phenytoin 1.0 mM, mouse lung membranes): 5 fold; Hill slope with vehicle only (sigma1 receptor [3]; vehicle only (50 µL, 0.15 M NaOH), mouse lung membranes): 1.3 ± 0.2; sigma1 receptor occupancy across tissues at higher doses (sigma1 receptor [4]; 31.6 – 100 µmol / kg (12 – 37 mg / kg)): fully occupied; ED50 (sigma1 receptor [4]; read-out: ED50, inhibition of specific radioligand binding in heart): 1.2 µmol/kg; ED50 (sigma1 receptor [4]; read-out: ED50, inhibition of specific radioligand binding in lung): 1.2 µmol/kg; ED50 (sigma1 receptor [4]; read-out: ED50, inhibition of specific radioligand binding in spleen): 3.5 µmol/kg; ED50 (sigma1 receptor [4]; read-out: ED50 values, range across lung, heart, spleen and brain): 1.1 to 4.4 µmol/kg; ED50 (sigma1 receptor [4]; read-out: ED50 values, range across tissues): 0.4 to 1.6 mg/kg; ED50 (sigma1 receptor [4]; read-out: lung ED50): 0.4 mg/kg
Cc1ccc2c(c1)C1CN(C)CCC1N2C(=O)CSc1nnnn1-c1ccc(Cl)cc1 (stereo not drawn) [AG-205, Z-2-[[1-(4-chlorophenyl)-1H-tetrazol-5-yl]thio]-1-(1,2,3,4,4a,9b-hexahydro-2,8-dimethyl-5H-pyrido[4,3-b]indol-5-yl)ethanone] | 1.06 ± 0.20 | – | 0.07 | 1.11 ± 0.12 | higher apparent affinity for sigma2 sites over sigma1 sites (sigma2 receptor [1]; mouse lung membranes, from Ki values): 14 fold; residual specific [3H](+)-pentazocine binding at highest concentration (sigma1 receptor [3]; 0.02 M, the highest concentration used): approximately 10%
Cc1ccccc1NC(=N)Nc1ccccc1C [DTG, 1,3-di(2-tolyl)guanidine] | 0.90 ± 0.16 | 75.2 ± 8.01 | – | 1.21 ± 0.09 | –
Cc1ccccc1NC(=N)Nc1ccccc1C [[^3H]DTG, [^3H]1,3-di(2-tolyl)guanidine] | – | – | – | – | time to steady state of specific binding (sigma2 receptor [5]): ≤ 2 min
CC(C(O)c1ccc(O)cc1)N1CCC(Cc2ccccc2)CC1 (stereo not drawn) [Ifenprodil, ifenprodil (+)-tartrate] | 0.88 ± 0.10 | 16.4 ± 1.89 | 0.1 | 1.06 ± 0.11 | IC50 (sigma2 receptor [1]): 2.4 ± 0.27 nM; Ki (sigma2 receptor [1]): 2.18 ± 0.24 nM
COc1ccc(CCN2CCN(C/C=C/I)CC2)cc1OC [[^125I]E-IA-DM-PE-PIPZE, E-N-1-(3´-iodoallyl)-N´-4-(3´´,4´´-dimethoxyphenethyl)-piperazine] | – | – | – | – | specific binding in vivo in brain (sigma1 receptor [4]; mouse brain, non-specific defined by BD1063): 85%; specific binding in vivo in heart (sigma1 receptor [4]; mouse heart, non-specific defined by BD1063): 50%; specific binding in vivo in lung (sigma1 receptor [4]; mouse lung, non-specific defined by BD1063 5.0 µmol / kg i.v.): 68%; specific binding in vivo in spleen (sigma1 receptor [4]; mouse spleen, non-specific defined by BD1063): 66%
C=CCN1CCC2(C)c3cc(O)ccc3CC1C2C (single isomer, unassigned; (-)) [(−)-NANM, (−)-N-allylnormetazocine] | 0.85 ± 0.09 | – | 2.0 | 1.48 ± 0.28 | –
C=CCN1CCC2(C)c3cc(O)ccc3CC1C2C (single isomer, unassigned; (+)) [(+)-NANM, (+)-N-allylnormetazocine] | 1.63 ± 0.35 | – | 1162 | 1.04 ± 0.10 | –
